Measured values taken from patent US20230372375A1, “SGLT-2 INHIBITOR SARCOSINE CO-CRYSTAL, PREPARATION METHOD THEREFOR AND USE THEREOF” (Beijing Creatron Institute of Pharmaceutical Research Co. …, priority 2020, published 2023).
Where “and” joins values, the source holds several entries; their conditions need not be identical. Equal entries are not always repeated. Where two headings read alike, the source gives them in different places.

Legend:
[1] = Influencing factors test (physical and chemical stability) of dapagliflozin crystal forms, Test Example 1
Procedure: The materials of the two crystal forms were directly exposed for 10 days to conditions of high temperature of 60° C.±2° C., light irradiation of 4500LX±500LX, and high humidity RH75%±5%, to investigate the physical stability and chemical stability of the two crystal forms.

[2] = Particle size by laser particle size analyzer; details: water as a dispersant
[3] = Comparison of sieving performance; details: 30 g, 80 mesh sieve, 1400 rpm, 20 minutes
[4] = Fluidity (angle of repose, bulk density, tap density); details: BT-1000 powder comprehensive property tester
[5] = Influencing factors test (physical and chemical stability) of canagliflozin crystal forms, Test Example 2; assay type: physicochemical; parameters: Impurity RRT0.73 content / Impurity RRT0.93 content / Impurity RRT1.12 content / Impurity RRT1.17 content / Impurity RRT2.25 content / Impurity RRT2.28 content / Impurity RRT0.57 content / Impurity RRT0.67 content: unit not given here
Procedure: The canagliflozin-sarcosine cocrystal and canagliflozin hemihydrate (original crystal form) were tested for influencing factors.

[6] = 60° C., directly exposed 10 days
[7] = Light irradiation of 5000 Lx, 10 days
[8] = Directly exposed at 60° C. for 10 days
[9] = Directly exposed at 5000 LX for 10 days
[10] = Directly exposed at RH75% for 10 days
[11] = light irradiation of 5000LX for 10 days

For `CCOc1ccc(Cc2cc([C@@H]3O[C@H](CO)[C@@H](O)[C@H](O)[C@H]3O)ccc2Cl)cc1.C[C@H](O)CO.O`, the “Impurity 6 (RT 21.65 min, RRT 1.06) content” value ([1]; 0 day) was 0.01, the “Impurity 7 (RT 22.01 min, RRT 1.07) content” value ([1]; 0 day) was 0.01 and the “Impurity 10 (RT 33.01 min, RRT 1.61) content” value ([1]; 0 day) was 0.02. For the same molecule, the “Impurity 11 (RT 33.72 min, RRT 1.65) content” value ([1]; 0 day) was 0.01, the “Impurity 12 (RT 34.69 min, RRT 1.69) content” value ([1]; 0 day) was 0.01 and the “Impurity 13 (RT 39.10 min, RRT 1.91) content” value ([1]; 0 day) was 0.02. The Number of impurities ([1]; 0 day) was 6, the “Property (appearance)” value ([1]; 0 day) was “White” and the “Total content of impurities (%)” value ([1]; 0 day) was 0.07%. For the same molecule, the “Impurity 1 (RT 7.45 min, RRT 0.36) content” value [1, 6] was 0.02, the “Impurity 2 (RT 10.46 min, RRT 0.51) content” value [1, 6] was 0.14 and the “Impurity 3 (RT 14.06 min, RRT 0.69) content” value [1, 6] was 0.01. The “Impurity 4 (RT 14.62 min, RRT 0.71) content” value [1, 6] was 0.21, the “Impurity 5 (RT 16.02 min, RRT 0.78) content” value [1, 6] was 0.01 and the “Impurity 6 (RT 21.65 min, RRT 1.06) content” value [1, 6] was 0.01. For the same molecule, the “Impurity 7 (RT 22.01 min, RRT 1.07) content” value [1, 6] was 0.01, the “Impurity 8 (RT 27.17 min, RRT 1.33) content” value [1, 6] was 0.02 and the “Impurity 9 (RT 30.53 min, RRT 1.49) content” value [1, 6] was 0.02. The “Impurity 10 (RT 33.01 min, RRT 1.61) content” value [1, 6] was 0.02, the “Impurity 11 (RT 33.72 min, RRT 1.65) content” value [1, 6] was 0.01 and the “Impurity 12 (RT 34.69 min, RRT 1.69) content” value [1, 6] was 0.01. For the same molecule, the “Impurity 13 (RT 39.10 min, RRT 1.91) content” value [1, 6] was 0.02, the Number of impurities [1, 6] was 13 and the “Property (appearance)” value [1, 6] was “Melted”. For the same molecule, the “Total content of impurities (%)” value [1, 6] was 0.50%, the “Impurity 6 (RT 21.65 min, RRT 1.06) content” value [1, 7] was 0.01 and the “Impurity 7 (RT 22.01 min, RRT 1.07) content” value [1, 7] was 0.01. The “Impurity 10 (RT 33.01 min, RRT 1.61) content” value [1, 7] was 0.02, the “Impurity 11 (RT 33.72 min, RRT 1.65) content” value [1, 7] was 0.01 and the “Impurity 12 (RT 34.69 min, RRT 1.69) content” value [1, 7] was 0.01. The “Impurity 13 (RT 39.10 min, RRT 1.91) content” value [1, 7] was 0.02, the Number of impurities [1, 7] was 6 and the “Total content of impurities (%)” value [1, 7] was 0.08%. The “Impurity 6 (RT 21.65 min, RRT 1.06) content” value ([1]; RH75%, 10 days) was 0.01, the “Impurity 7 (RT 22.01 min, RRT 1.07) content” value ([1]; RH75%, 10 days) was 0.01 and the “Impurity 10 (RT 33.01 min, RRT 1.61) content” value ([1]; RH75%, 10 days) was 0.02. For the same molecule, the “Impurity 11 (RT 33.72 min, RRT 1.65) content” value ([1]; RH75%, 10 days) was 0.01, the “Impurity 12 (RT 34.69 min, RRT 1.69) content” value ([1]; RH75%, 10 days) was 0.01 and the “Impurity 13 (RT 39.10 min, RRT 1.91) content” value ([1]; RH75%, 10 days) was 0.02. The Number of impurities ([1]; RH75%, 10 days) was 6, the “Total content of impurities (%)” value ([1]; RH75%, 10 days) was 0.08% and the “D10 (μm)” value [2] was 2.492 μm. The “D50 (μm)” value [2] was 61.55 μm, the “D90 (μm)” value [2] was 256.2 μm and the “Average yield (%) after sieving” value [3] was 86.0%. For the same molecule, the Situations after sieving [3] was “Almost no large particles but a”, the “Yield after sieving (%, n = 3), single runs” value ([3]; listed as Dapagliflozin (S)-propylene glycol hydrate) was 85.2, % and 87.7, % and 84.9% and the “Angle of repose (°)” value [4] was 48 °. For the same molecule, the “Bulk density” value [4] was 0.35 g/mL and the “Tap density” value [4] was 0.53 g/mL.

`CNCC(=O)O.Cc1ccc([C@@H]2O[C@H](CO)[C@@H](O)[C@H](O)[C@H]2O)cc1Cc1ccc(-c2ccc(F)cc2)s1` [canagliflozin-sarcosine cocrystal] gave a Solubility (Acetate buffer of pH 4.0, 25° C., 12 h) of 32.65 mg/mL, a Solubility (Acetate buffer of pH 4.0, 25° C., 24 h) of 32.66 mg/mL and a Solubility (Artificial gastric juice, 25° C., 12 h) of 31.16 mg/mL. The Solubility (Artificial gastric juice, 25° C., 24 h) was 32.08 mg/mL, the Solubility (Artificial intestinal juice, 25° C., 12 h) was 30.35 mg/mL and the Solubility (Artificial intestinal juice, 25° C., 24 h) was 30.89 mg/mL. The Solubility (Citrate buffer of pH 3.0, 25° C., 12 h) was 33.87 mg/mL, the Solubility (Citrate buffer of pH 3.0, 25° C., 24 h) was 34.23 mg/mL and the Solubility (Hydrochloric acid of pH 1.0, 25° C., 12 h) was 34.92 mg/mL. It also gave a Solubility (Hydrochloric acid of pH 1.0, 25° C., 24 h) of 35.12 mg/mL, a Solubility (Phosphate buffer of pH 6.8, 25° C., 12 h) of 31.28 mg/mL and a Solubility (Phosphate buffer of pH 6.8, 25° C., 24 h) of 33.34 mg/mL. For the same molecule, the Solubility (Water, 25° C., 12 h) was 35.12 mg/mL, the Solubility (Water, 25° C., 24 h) was 34.56 mg/mL and the “Solubility in different pH media” value (summary over media, 25° C.) was “about 30 μg/ml”. For the same molecule, the “Solubility in different pH media (words)” value (summary over media, 25° C.) was “almost insoluble”, the “Impurity RRT0.57 content” value ([5]; 0 day) was 0.01 and the “Impurity RRT0.93 content” value ([5]; 0 day) was 0.01. The “Impurity RRT2.25 content” value ([5]; 0 day) was 0.01, the Number of impurities ([5]; 0 day) was 3 and the “Property (appearance)” value ([5]; 0 day) was “White”. For the same molecule, the Total content of impurities ([5]; 0 day) was 0.03%, the “Impurity RRT0.57 content” value [5, 8] was 0.01 and the “Impurity RRT0.93 content” value [5, 8] was 0.01. The “Impurity RRT2.25 content” value [5, 8] was 0.01, the Number of impurities [5, 8] was 3 and the “Property (appearance)” value [5, 8] was “White”. For the same molecule, the Total content of impurities [5, 8] was 0.03%, the “Impurity RRT0.57 content” value [5, 9] was 0.05 and the “Impurity RRT0.73 content” value [5, 9] was 0.01. For the same molecule, the “Impurity RRT0.93 content” value [5, 9] was 0.01, the “Impurity RRT1.12 content” value [5, 9] was 0.01 and the “Impurity RRT2.25 content” value [5, 9] was 0.01. For the same molecule, the Number of impurities [5, 9] was 5, the “Property (appearance)” value [5, 9] was “White” and the Total content of impurities [5, 9] was 0.09%. For the same molecule, the “Impurity RRT0.57 content” value [5, 10] was 0.01, the “Impurity RRT0.93 content” value [5, 10] was 0.01 and the “Impurity RRT2.25 content” value [5, 10] was 0.01. The Number of impurities [5, 10] was 3, the “Property (appearance)” value [5, 10] was “White” and the Total content of impurities [5, 10] was 0.03%. For the same molecule, the “Crystal form stability (XRPD)” value ([5]; each influencing factor for 10 days vs 0 day) was “did not change”, the “Number of impurities detected and total content of impurities detected, change” value ([5]; high temperature 60° C. and high humidity of RH75% for 10 days vs 0 day) was “did not show an increasing trend” and the Weight change ([5]; high temperature of 60° C. and high humidity of RH75%) was “basically remained unchanged”. For the same molecule, the “Maximum detected amount of new impurities” value [5, 11] was “about 0.05%” and the “New impurities detected (number)” value [5, 11] was 2.
